In US7235584B2, “Non-psychotropic cannabinoids” (Pharmos Corporation, priority 2000, dated 2007):

Tested on: PGE2
Assay: Inhibition of prostaglandin (PGE2) synthesis in LPS-stimulated macrophage cell cultures
Format: cell-based
Method: The inhibitory effect of the new derivatives of Dexanabinol on prostaglandin synthesis is evaluated in macrophage cell cultures following LPS exposure to induce the inflammatory response. These assays are an indication of the anti-inflammatory activity of the individual analogs.
The inhibitory effect of Dexanabinol new analogs on prostaglandin synthesis was evaluated in macrophage cell cultures. Macrophages were seeded in a 24 well NUNC plates, and incubated with DMEM medium for 24 hours to allow attachment to plastic. The wells were vacuumed and a different new analog is added for 1 hour. Treatments are done in triplicates. Following, LPS was added for a duration of 3–24 extra hours, to induce the inflammatory response. The supernatants were collected and analyzed for PGE2 by enzyme immunoassay technique Biotrak kit (Amersham Pharmacia Biotech).

## CCCCCCC(C)(C)c1cc(O)c2c(c1)OC(C)(C)[C@H]1CC=C(Cn3cccn3)C[C@H]21 [211,220-000, (+)-(3S,4S)-6,6-Dimethyl-(1,1-dimethylheptyl)-1-hydroxy-9-(pyrazolomethyl)-6a,7,10,10a-tetrahydro-6H-dibenzo[b,d]pyran]
  inhibition at 10 µM: 59%
